Measured values: PMC9853328, “Potent Platinum(IV) Prodrugs That Incorporate a Biotin Moiety to Selectively Target Cancer Cells” (Pharmaceutics, 2022)
Like-named read-outs stand apart in the source and are kept apart here.

How the values were obtained:
[1] = tested on: A2780 ovarian cancer cells; design: method as in earlier work; conditions: MTT, same method, taken from the literature; ref [18],[46],[47]; read-out: GI50 ± SEM, A2780; cited from earlier work
[2] = tested on: Du145 prostate cancer cells; design: method as in earlier work; conditions: MTT, same method, taken from the literature; ref [18],[46],[47]; read-out: GI50 ± SEM, Du145; cited from earlier work
[3] = tested on: SJ-G2 glioblastoma cells; design: method as in earlier work; conditions: MTT, same method, taken from the literature; ref [18],[46],[47]; read-out: GI50 ± SEM, SJ-G2; cited from earlier work
[4] = tested on: non-cancerous MCF10A breast cell line; design: method as in earlier work; conditions: MTT, same method, taken from the literature; ref [18],[46],[47]; read-out: GI50 ± SEM, MCF10A; cited from earlier work
[5] = tested on: MCF-7 breast cancer cells; design: method as in earlier work; conditions: MTT, same method, taken from the literature; ref [18],[46],[47]; read-out: GI50 ± SEM, MCF-7; cited from earlier work
[6] = tested on: HT29 colon cancer cells; design: method as in earlier work; conditions: MTT, same method, taken from the literature; ref [18],[46],[47]; read-out: GI50 ± SEM, HT29; cited from earlier work
[7] = tested on: ADDP (subclone of A2780) versus A2780 ovarian cancer cell lines; assay: Resistance factor, GI50 in ADDP/GI50 in A2780; type: cell-based
[8] = tested on: cisplatin-resistant ADDP ovarian (subclone of A2780) cancer cells; design: method as in earlier work; conditions: MTT, same method, taken from the literature; ref [18],[46],[47]; read-out: GI50 ± SEM, ADDP; cited from earlier work
[9] = tested on: A431 skin cancer cells; design: method as in earlier work; conditions: MTT, same method, taken from the literature; ref [18],[46],[47]; read-out: GI50 ± SEM, A431; cited from earlier work
[10] = tested on: MIA pancreas cancer cells; design: method as in earlier work; conditions: MTT, same method, taken from the literature; ref [18],[46],[47]; read-out: GI50 ± SEM, MIA; cited from earlier work
[11] = tested on: H460 lung cancer cells; design: method as in earlier work; conditions: MTT, same method, taken from the literature; ref [18],[46],[47]; read-out: GI50 ± SEM, H460; cited from earlier work
[12] = tested on: BE2-C neuroblastoma cells; design: method as in earlier work; conditions: MTT, same method, taken from the literature; ref [18],[46],[47]; read-out: GI50 ± SEM, BE2-C; cited from earlier work
[13] = tested on: U87 glioblastoma cells; design: method as in earlier work; conditions: MTT, same method, taken from the literature; ref [18],[46],[47]; read-out: GI50 ± SEM, U87; cited from earlier work
[14] = tested on: A2780 ovarian cancer cells; assay: MTT in vitro cytotoxicity assay, A2780; type: cell-based; conditions: 72 h drug exposure, n = 3, read-out: GI50 ± SEM, A2780
Procedure: (§1) The in vitro cytotoxicity assays were undertaken at Calvary Mater Hospital, Waratah, NSW, Australia, following a method previously published in the literature. A stock solution for each compound was prepared in DMSO (30 mM) and stored at −20 °C. The cell lines used in the study include HT29 colon, U87 glioblastoma, MCF-7 breast, A2780 ovarian, H460 lung, A431 skin, Du145 prostate, BE2-C neuroblastoma, SJ-G2 glioblastoma, MIA pancreas, and cisplatin-resistant ADDP ovarian (subclone of A2780) cancer cells, as well as the non-cancerous-derived MCF10A breast cell line. The cancer cell lines were cultured in a humidified atmosphere 5% CO2 at 37 °C and maintained in Dulbecco’s modified Eagle’s medium (Trace Biosciences, Sydney, Australia), supplemented with 10% foetal bovine serum, sodium bicarbonate (10 mM), penicillin (100 IU/mL), streptomycin (100 µg/mL), and glutamine (4 mM). The non-cancerous MCF10A cell line was maintained in DMEM:F12 (1:1) cell culture media, with 5% heat inactivated horse serum, supplemented with penicillin (50 IU/mL), streptomycin (50 µg/mL), glutamine (2 mM), HEPES (20 mM), epidermal growth factor (20 ng/mL), hydrocortisone (500 ng/mL), cholera toxin (100 ng/mL), and insulin (10 µg/mL). Cells were plated in duplicate in medium (100 µL) at a density of 2500–4000 cells per well in 96-well plates. On day 0, (24 h after plating) when the cells were in logarithmic growth, medium (100 μL) with or without the test agent was added to each well. The growth inhibitory effects were evaluated after 72 h drug exposure, using the MTT (3-(4,5-dimethylthiazol-2-yl)-2,5-diphenyltetrazolium bromide) assay, with the absorbance read at 540 nm. An eight-point dose–response curve was produced, which was used to determine the concentration at which growth was inhibited by 50% (GI50). This calculation was based on the difference between the optical density values on day 0 and those at the end of drug exposure. […] Experiments were conducted on three separate occasions and GI50 values were reported as the mean and standard error of the mean.

[15] = tested on: Du145 prostate cancer cells; assay: MTT in vitro cytotoxicity assay, Du145; type: cell-based; conditions: for GI50: MTT; for number-fold potency against cisplatin, Du145 prostate: ratio of GI50 values
Procedure: as §1

[16] = tested on: non-cancerous MCF10A breast cell line; assay: MTT in vitro cytotoxicity assay, MCF10A; type: cell-based; conditions: 72 h drug exposure, n = 3, read-out: GI50 ± SEM, MCF10A
Procedure: as §1

[17] = tested on: MCF-7 breast cancer cells; assay: MTT in vitro cytotoxicity assay, MCF-7; type: cell-based; conditions: MTT, 72 h drug exposure, n = 3; read-out: GI50 ± SEM, MCF-7
[18] = tested on: BE2-C neuroblastoma cells; assay: MTT in vitro cytotoxicity assay, BE2-C; type: cell-based; conditions: 72 h drug exposure, n = 3, read-out: GI50 ± SEM, BE2-C
Procedure: as §1

[19] = tested on: panel of cancer cell lines; assay: MTT cytotoxicity averaged across the panel of cancer cell lines; type: cell-based; conditions: for enhanced activity compared to platinum(II) precursor across the cancer cell lines: across all cancer cell lines; for GI50: calculated from the panel of cancer cell lines tested (Table S4)
[20] = tested on: cisplatin-resistant ADDP ovarian (subclone of A2780) cancer cells; assay: MTT in vitro cytotoxicity assay, ADDP; type: cell-based; conditions: 72 h drug exposure, n = 3, read-out: GI50 ± SEM, ADDP
Procedure: as §1

[21] = tested on: A431 skin cancer cells; assay: MTT in vitro cytotoxicity assay, A431; type: cell-based; conditions: 72 h drug exposure, n = 3, read-out: GI50 ± SEM, A431
Procedure: as §1

[22] = tested on: SJ-G2 glioblastoma cells; assay: MTT in vitro cytotoxicity assay, SJ-G2; type: cell-based; conditions: 72 h drug exposure, n = 3, read-out: GI50 ± SEM, SJ-G2
Procedure: as §1

[23] = Lipophilicity by RP-HPLC (logkw); type: physicochemical; conditions: capacity factor in 100% water
Procedure: HPLC experiments were carried out using an Agilent Technologies (Melbourne, Australia) 1260 Infinity instrument, equipped with a Phenomenex (Sydney, Australia) Onyx^TM Monolithic C18 reverse phase column (100 × 4.6 mm, 130 Å). The mobile phase was made up of 0.06% TFA in water (solvent A) and 0.06% TFA in an acetonitrile:water (9:1) mixture (solvent B). Samples were eluted over a gradient of 0–100% (% B) for 15 min, at a flow rate of 1 mL/min, with a sample injection volume of 10 µL. Eluting peaks were detected using a PDA at 254 nm.
For lipophilicity experiments, RP-HPLC was utilised to determine the logkw of each compound, similarly to what has been previously published for similar complexes. Samples were eluted at various isocratic percentages, ranging from 18–30% solvent B. To determine the dead volume of the column, potassium iodide was used as an external dead volume marker. The retention time of each sample in each isocratic run ( tr ) and the dead volume time ( t0 ) were both substituted in Equation (1) to calculate the capacity factor ( k ). (1) k=tr−t0/t0
Following this, logk was plotted against the percentage of ACN. For each complex, a minimum of four concentrations of ACN were used. This produced a linear graph with the equation in the form:(2) logk=Sφ+logkw where S is the slope, φ is the percentage of ACN, and logkw is the y-intercept, which represents the capacity factor of the compound in 100% water.
It is important to explore the lipophilicity of a drug, as it is widely believed that increased lipophilicity results in greater cellular accumulation. To understand the lipophilicity of 1–4, RP-HPLC was utilised to determine the logkw of each complex. To calculate this, each complex was eluted at different isocratic percentages, whereby the retention time was used in Equation (1) to calculate the capacity factor (k). The percentage of the organic solvent was then plotted against log k for each isocratic percentage, producing a linear equation that allowed for logkw to be deduced using Equation (2) (Figure S38). The logkw value represents the capacity factor of the compound in 100% water and can be used to compare a series of compounds. Since 1–4 comprise the same axially bound ligand, biotin, the lipophilicity was influenced by the groups on the PL. The logkw of each complex is presented in Table 1, with their corresponding PL. The increasing lipophilicity of the complexes followed the order: 1 < 4 < 2 < 3.

[24] = tested on: H460 lung cancer cells; assay: MTT in vitro cytotoxicity assay, H460; type: cell-based; conditions: 72 h drug exposure, n = 3, read-out: GI50 ± SEM, H460
Procedure: as §1

[25] = tested on: U87 glioblastoma cells; assay: MTT in vitro cytotoxicity assay, U87; type: cell-based; conditions: 72 h drug exposure, n = 3, read-out: GI50 ± SEM, U87
Procedure: as §1

[26] = tested on: MIA pancreas cancer cells; assay: MTT in vitro cytotoxicity assay, MIA; type: cell-based; conditions: 72 h drug exposure, n = 3, read-out: GI50 ± SEM, MIA
Procedure: as §1

[27] = tested on: HT29 colon cancer cells; assay: MTT in vitro cytotoxicity assay, HT29; type: cell-based; conditions: for GI50: MTT, 72 h drug exposure, n = 3, read-out: GI50 ± SEM, HT29
Procedure: as §1

SMILES | Resistance factor (RF) [7] | GI50 [14] [nM] | number-fold potency against cisplatin, Du145 prostate ([15]; 72 h) [fold] | GI50 [16] [nM] | GI50 [17] [nM] | GI50 [18] [nM] | enhanced activity compared to platinum(II) precursor across the cancer cell lines [19] | GI50 [19] [nM] | GI50 [20] [nM] | GI50 [21] [nM] | GI50 [22] [nM] | logkw [23] | GI50 [24] [nM] | GI50 [25] [nM] | GI50 [26] [nM] | GI50 [27] [nM] | other results
N.N.[Cl][Pt][Cl] [Cisplatin, cisplatin] | 28.00 | – | – | – | – | – | – | – | – | – | – | – | – | – | – | – | GI50 [1]: 1000 ± 100 nM; GI50 [2]: 1200 ± 100 nM; GI50 [3]: 400 ± 100 nM; GI50 [4]: 5200 ± 520 nM; GI50 [5]: 6500 ± 800 nM; GI50 [6]: 11300 ± 1900 nM; Resistance factor (RF) ([7]; listed as cisplatin): 28; GI50 [8]: 28000 ± 1700 nM; GI50 [9]: 2400 ± 300 nM; GI50 [10]: 7500 ± 1300 nM; GI50 [11]: 900 ± 200 nM; GI50 [12]: 1900 ± 200 nM; GI50 [13]: 3800 ± 1100 nM
O=C1N[C@H]2[C@H](CS[C@H]2CCCCC(=O)[O][Pt-2]23([OH])([NH2+][C@H]4CCCC[C@@H]4[NH2+]2)[n+]2cccc4ccc5ccc[n+]3c5c42)N1.O=[N+]([O-])[O-].O=[N+]([O-])[O-] [Complex 1, [Pt(1,10-phenthroline)(1S,2S-diaminocyclohexane)(biotin)(hydroxido)](NO3)2] | 0.96 | 250 ± 20 | 10 | 280 ± 40 | 850 ± 140 | 1000 ± 100 | comparable activity | 455 | 240 ± 10 | 600 ± 110 | 290 ± 70 | 0.64 | 300 ± 20 | 970 ± 150 | 210 ± 30 | 170 ± 60 | GI50 ([15]; 72 h drug exposure, n = 3, read-out: GI50 ± SEM, Du145): 120 ± 40 nM; number-fold potency against cisplatin, HT29 colon ([27]; ratio of GI50 values, 72 h): 66 fold
Cc1c(C)c2ccc[n+]3c2c2c1ccc[n+]2[Pt-2]31([OH])([O]C(=O)CCCC[C@@H]2SC[C@@H]3NC(=O)N[C@@H]32)[NH2+][C@H]2CCCC[C@@H]2[NH2+]1.O=[N+]([O-])[O-].O=[N+]([O-])[O-] [Complex 2, [Pt(5,6-dimethyl-1,10-phenanthroline)(1S,2S-diaminocyclohexane)(biotin)(hydroxido)](NO3)2] | 0.55 | 20 ± 4 | 300 | 14 ± 4 | 22 ± 8 | 100 ± 10 | ~ 2 fold | 27 | 11 ± 4 | 36 ± 6 | 36 ± 10 | 0.78 | 18 ± 4 | 32 ± 8 | 10 ± 2 | 11 ± 5 | GI50 ([15]; 72 h, read-out: GI50, Du145 prostate cancer cell line): 4 nM
